What all share (assay): relative viability (nuclei count vs DMSO), 5 days (fraction); higher = more cells survive
Compound in the assay “KIN001-266 + Pemetrexed”: CCN1CCC(CC1)N2C=C(N=N2)CNC3=CC4=C(C(=CN=C4C(=C3)Cl)C#N)NC5=CC(=C(C=C5)F)Cl [KIN001-266] + Nc1nc2[nH]cc(CCc3ccc(C(=O)N[C@@H](CCC(=O)O)C(=O)O)cc3)c2c(=O)[nH]1 [Pemetrexed] (partner 0.2 µM)
In short, it runs like this:
(§1)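 After 5 days of treatment, lung cancer cells in 1536-well plates were fixed and stained in a single step (final 0.05% Triton X-100, 1% formaldehyde, 1 ug/ml Hoechst) and their nuclei counted on 4× images. Treatment had been applied by pin tool the day after seeding as one drug alone or as a fixed anchor-drug dose with five library-drug doses (not always all listed) in √10 steps. Relative viability is the nuclei count of treated wells divided by that of vehicle wells, and values are medians of duplicate plates.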

Compound in the assay “KIN001-266 + Alpelisib”: CCN1CCC(CC1)N2C=C(N=N2)CNC3=CC4=C(C(=CN=C4C(=C3)Cl)C#N)NC5=CC(=C(C=C5)F)Cl [KIN001-266] + Cc1nc(NC(=O)N2CCC[C@H]2C(N)=O)sc1-c1ccnc(C(C)(C)C(F)(F)F)c1 [Alpelisib] (partner 2 µM)
A digest of the protocol: as §1

Compound in the assay “KIN001-266 + Foretinib”: CCN1CCC(CC1)N2C=C(N=N2)CNC3=CC4=C(C(=CN=C4C(=C3)Cl)C#N)NC5=CC(=C(C=C5)F)Cl [KIN001-266] + COc1cc2c(Oc3ccc(NC(=O)C4(C(=O)Nc5ccc(F)cc5)CC4)cc3F)ccnc2cc1OCCCN1CCOCC1 [Foretinib] (partner 0.25 µM)
In short, it runs like this: as §1

Compound in the assay “KIN001-266 + Olaparib”: CCN1CCC(CC1)N2C=C(N=N2)CNC3=CC4=C(C(=CN=C4C(=C3)Cl)C#N)NC5=CC(=C(C=C5)F)Cl [KIN001-266] + O=C(c1cc(Cc2n[nH]c(=O)c3ccccc23)ccc1F)N1CCN(C(=O)C2CC2)CC1 [Olaparib] (partner 8 µM)
A digest of the protocol: as §1

For the cell line EKVX, the relative viability in the assay with KIN001-266 + Pemetrexed (first compound 0.08 µM) was found to be 0.295; with KIN001-266 + Pemetrexed (first compound 0.253 µM), 0.432; in the assay with KIN001-266 + Pemetrexed (first compound 0.8 µM), 0.406; with KIN001-266 + Pemetrexed (first compound 2.53 µM) it was 0.391; with KIN001-266 + Pemetrexed (first compound 8 µM), 0.375; with KIN001-266 + Alpelisib (first compound 0.08 µM), 0.871. The relative viability in the assay with KIN001-266 + Alpelisib (first compound 0.253 µM) was determined as 0.817; with KIN001-266 + Alpelisib (first compound 0.8 µM), 0.83; with KIN001-266 + Alpelisib (first compound 2.53 µM) it was 0.807; with KIN001-266 + Alpelisib (first compound 8 µM), 0.877; in the assay with KIN001-266 + Foretinib (first compound 0.08 µM), 0.858; with KIN001-266 + Foretinib (first compound 0.253 µM), 0.744. Further, the relative viability turned out to be 0.642 in the assay with KIN001-266 + Foretinib (first compound 0.8 µM); 0.781 with KIN001-266 + Foretinib (first compound 2.53 µM); 0.624 in the assay with KIN001-266 + Foretinib (first compound 8 µM); 0.914 with KIN001-266 + Olaparib (first compound 0.08 µM); 0.899 with KIN001-266 + Olaparib (first compound 0.253 µM); 0.844 in the assay with KIN001-266 + Olaparib (first compound 0.8 µM). Besides, the relative viability with KIN001-266 + Olaparib (first compound 2.53 µM) turned out to be 0.78; with KIN001-266 + Olaparib (first compound 8 µM) it was 0.865.
On to ChaGo-K-1, for which the relative viability was determined as 0.264 with KIN001-266 + Pemetrexed (first compound 0.08 µM); 0.268 in the assay with KIN001-266 + Pemetrexed (first compound 0.253 µM); 0.255 with KIN001-266 + Pemetrexed (first compound 0.8 µM); 0.25 with KIN001-266 + Pemetrexed (first compound 2.53 µM); 0.237 with KIN001-266 + Pemetrexed (first compound 8 µM); 0.904 with KIN001-266 + Foretinib (first compound 0.08 µM). Further, the relative viability is 0.989 in the assay with KIN001-266 + Foretinib (first compound 0.253 µM); 0.756 with KIN001-266 + Foretinib (first compound 0.8 µM); 0.793 in the assay with KIN001-266 + Foretinib (first compound 2.53 µM); 0.871 with KIN001-266 + Foretinib (first compound 8 µM); 0.401 with KIN001-266 + Olaparib (first compound 0.08 µM); 0.422 with KIN001-266 + Olaparib (first compound 0.253 µM). Also, the figures for the relative viability in the assay with KIN001-266 + Olaparib (first compound 0.8 µM), with KIN001-266 + Olaparib (first compound 2.53 µM) and with KIN001-266 + Olaparib (first compound 8 µM) were 0.301, 0.282 and 0.227, respectively.
NCI-H23: the relative viability in the assay with KIN001-266 + Pemetrexed (first compound 0.08 µM) stood at 0.627; with KIN001-266 + Pemetrexed (first compound 0.253 µM) it was 0.634; with KIN001-266 + Pemetrexed (first compound 0.8 µM), 0.658; with KIN001-266 + Pemetrexed (first compound 2.53 µM), 0.643; with KIN001-266 + Pemetrexed (first compound 8 µM), 0.596; in the assay with KIN001-266 + Alpelisib (first compound 0.08 µM), 0.768. Besides, the relative viability with KIN001-266 + Alpelisib (first compound 0.253 µM) was determined as 0.646; in the assay with KIN001-266 + Alpelisib (first compound 0.8 µM), 0.733; in the assay with KIN001-266 + Alpelisib (first compound 2.53 µM), 0.663; with KIN001-266 + Alpelisib (first compound 8 µM) it was 0.695; with KIN001-266 + Foretinib (first compound 0.08 µM), 0.924; in the assay with KIN001-266 + Foretinib (first compound 0.253 µM), 0.83. Further, the relative viability with KIN001-266 + Foretinib (first compound 0.8 µM) was 0.975; in the assay with KIN001-266 + Foretinib (first compound 2.53 µM), 0.995; with KIN001-266 + Foretinib (first compound 8 µM) it was 0.862; in the assay with KIN001-266 + Olaparib (first compound 0.08 µM), 0.334; in the assay with KIN001-266 + Olaparib (first compound 0.253 µM) it was 0.303; with KIN001-266 + Olaparib (first compound 0.8 µM), 0.321. The relative viability with KIN001-266 + Olaparib (first compound 2.53 µM) was 0.309; with KIN001-266 + Olaparib (first compound 8 µM), 0.251.
With EMC-BAC-2, the relative viability amounted to 0.505 with KIN001-266 + Pemetrexed (first compound 0.08 µM); 0.504 with KIN001-266 + Pemetrexed (first compound 0.253 µM); 0.449 in the assay with KIN001-266 + Pemetrexed (first compound 0.8 µM); 0.462 in the assay with KIN001-266 + Pemetrexed (first compound 2.53 µM); 0.529 with KIN001-266 + Pemetrexed (first compound 8 µM); 0.718 with KIN001-266 + Alpelisib (first compound 0.08 µM). The relative viability came out at 0.751 with KIN001-266 + Alpelisib (first compound 0.253 µM); 0.749 in the assay with KIN001-266 + Alpelisib (first compound 0.8 µM); 0.743 with KIN001-266 + Alpelisib (first compound 2.53 µM); 0.733 with KIN001-266 + Alpelisib (first compound 8 µM); 1.13 in the assay with KIN001-266 + Foretinib (first compound 0.08 µM); 1.09 in the assay with KIN001-266 + Foretinib (first compound 0.253 µM). The relative viability with KIN001-266 + Foretinib (first compound 0.8 µM) turned out to be 0.972; with KIN001-266 + Foretinib (first compound 2.53 µM) it was 1.03; with KIN001-266 + Foretinib (first compound 8 µM) it was 1; with KIN001-266 + Olaparib (first compound 0.08 µM) it was 0.546; in the assay with KIN001-266 + Olaparib (first compound 0.253 µM) it was 0.519; with KIN001-266 + Olaparib (first compound 0.8 µM), 0.449. Also, the relative viability amounted to 0.437 with KIN001-266 + Olaparib (first compound 2.53 µM) and 0.46 with KIN001-266 + Olaparib (first compound 8 µM).

For the origin of these results see the supplement of paper PMC10307832.
